Data on eight molecules can be found in ChEMBL document CHEMBL1201862, “PubChem BioAssay data set” (2004).

Assay [1] deals with T1, Caspase-3 (Homo sapiens, UniProt P42574).
T1 sequence (P42574 whole entry): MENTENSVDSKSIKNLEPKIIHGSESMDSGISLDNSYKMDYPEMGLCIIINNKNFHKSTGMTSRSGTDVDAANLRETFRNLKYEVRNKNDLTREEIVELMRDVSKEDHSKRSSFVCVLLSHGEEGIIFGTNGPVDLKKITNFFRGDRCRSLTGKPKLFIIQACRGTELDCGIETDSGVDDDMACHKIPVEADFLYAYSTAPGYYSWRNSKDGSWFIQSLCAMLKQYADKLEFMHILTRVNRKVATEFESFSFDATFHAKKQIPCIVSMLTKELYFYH
In kind it is functional.

In assay [2] the target is T2, Mitochondrial peptide methionine sulfoxide reductase (Bos taurus, UniProt P54149).
T2 sequence (P54149 whole entry): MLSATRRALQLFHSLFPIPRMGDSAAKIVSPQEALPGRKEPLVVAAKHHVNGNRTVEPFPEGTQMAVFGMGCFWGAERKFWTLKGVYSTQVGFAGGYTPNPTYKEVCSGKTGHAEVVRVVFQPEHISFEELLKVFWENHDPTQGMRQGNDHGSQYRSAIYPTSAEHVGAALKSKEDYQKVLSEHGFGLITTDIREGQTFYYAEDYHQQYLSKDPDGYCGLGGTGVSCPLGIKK
The assay can be described thus: Absorbance-based biochemical high throughput dose response assay for activators of Methionine sulfoxide reductase A (MsrA). In kind it is functional.

Assay [3] addresses T3, Sentrin-specific protease 8 (Homo sapiens, UniProt Q96LD8).
T3 sequence (Q96LD8 whole entry): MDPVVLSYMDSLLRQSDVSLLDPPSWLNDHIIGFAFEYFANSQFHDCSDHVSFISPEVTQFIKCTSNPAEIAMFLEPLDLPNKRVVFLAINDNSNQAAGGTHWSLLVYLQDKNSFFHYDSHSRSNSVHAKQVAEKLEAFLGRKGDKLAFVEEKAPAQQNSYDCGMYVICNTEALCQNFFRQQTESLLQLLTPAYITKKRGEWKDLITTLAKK
The format is functional.

Assay [4] has as its target T4, Protein skinhead-1 (Caenorhabditis elegans, UniProt P34707).
T4 sequence (P34707 whole entry): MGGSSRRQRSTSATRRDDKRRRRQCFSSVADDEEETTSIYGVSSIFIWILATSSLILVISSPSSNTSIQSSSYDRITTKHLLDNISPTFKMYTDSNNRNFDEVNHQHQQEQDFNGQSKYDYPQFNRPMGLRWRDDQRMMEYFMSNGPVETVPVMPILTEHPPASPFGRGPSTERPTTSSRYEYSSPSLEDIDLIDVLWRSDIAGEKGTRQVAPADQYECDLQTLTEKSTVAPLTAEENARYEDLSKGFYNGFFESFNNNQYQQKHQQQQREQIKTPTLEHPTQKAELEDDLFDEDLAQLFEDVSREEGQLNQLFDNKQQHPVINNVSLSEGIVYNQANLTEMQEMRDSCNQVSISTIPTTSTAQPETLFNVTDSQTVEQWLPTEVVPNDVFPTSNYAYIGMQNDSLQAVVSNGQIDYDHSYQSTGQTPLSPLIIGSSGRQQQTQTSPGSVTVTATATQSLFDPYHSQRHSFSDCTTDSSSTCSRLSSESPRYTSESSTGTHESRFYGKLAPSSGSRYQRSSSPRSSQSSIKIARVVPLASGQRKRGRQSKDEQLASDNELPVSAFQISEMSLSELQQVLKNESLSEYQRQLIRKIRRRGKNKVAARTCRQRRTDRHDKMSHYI
In kind it is functional.

The target in assay [5] is Genome polyprotein (dengue virus type 2, UniProt P29990). The assay can be described thus: flavivirus cap methylation enzyme inhibition – biochemical, confirmation dose response, primary screen (AID 588689). In kind it is functional.
Genome polyprotein, sequence (P29990 2492-3391 limits assumed): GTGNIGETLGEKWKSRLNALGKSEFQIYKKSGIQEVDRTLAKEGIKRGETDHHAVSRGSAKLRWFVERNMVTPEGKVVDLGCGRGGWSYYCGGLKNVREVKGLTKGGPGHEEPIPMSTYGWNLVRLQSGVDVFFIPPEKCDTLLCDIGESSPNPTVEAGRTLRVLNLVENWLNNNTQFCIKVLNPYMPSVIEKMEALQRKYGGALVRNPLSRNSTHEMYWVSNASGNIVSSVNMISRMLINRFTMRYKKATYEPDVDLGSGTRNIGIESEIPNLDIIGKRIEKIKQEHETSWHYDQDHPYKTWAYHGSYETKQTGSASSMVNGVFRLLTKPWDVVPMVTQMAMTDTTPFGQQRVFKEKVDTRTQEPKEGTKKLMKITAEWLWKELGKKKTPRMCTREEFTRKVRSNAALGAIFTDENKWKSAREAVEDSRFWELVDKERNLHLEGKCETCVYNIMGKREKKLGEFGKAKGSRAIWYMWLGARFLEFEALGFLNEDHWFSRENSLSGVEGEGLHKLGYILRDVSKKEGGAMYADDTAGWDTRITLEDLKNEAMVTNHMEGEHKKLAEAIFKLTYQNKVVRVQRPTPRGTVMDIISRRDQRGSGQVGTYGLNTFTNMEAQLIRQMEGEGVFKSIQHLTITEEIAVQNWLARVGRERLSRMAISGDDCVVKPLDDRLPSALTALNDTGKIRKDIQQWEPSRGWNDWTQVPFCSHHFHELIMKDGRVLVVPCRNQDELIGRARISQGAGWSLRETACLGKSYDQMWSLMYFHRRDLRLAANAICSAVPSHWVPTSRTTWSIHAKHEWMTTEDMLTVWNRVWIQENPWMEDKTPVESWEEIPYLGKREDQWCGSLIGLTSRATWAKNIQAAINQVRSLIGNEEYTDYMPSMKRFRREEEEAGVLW
Assay [6] deals with Beta Lactamase (Pseudomonas aeruginosa, UniProt Q932Y6). Kind of assay: BLA reporter interference, concentration series – BLA reporter cells, FRET fluorescence, artefact control for TLR9-MyD88 binding inhibitor project, dose response (AID 588341).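 Also: cell based assay in CHO-K1 cells stably expressing beta-lactamase.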 The format is cell-based.
Beta Lactamase, sequence (Q932Y6 whole entry): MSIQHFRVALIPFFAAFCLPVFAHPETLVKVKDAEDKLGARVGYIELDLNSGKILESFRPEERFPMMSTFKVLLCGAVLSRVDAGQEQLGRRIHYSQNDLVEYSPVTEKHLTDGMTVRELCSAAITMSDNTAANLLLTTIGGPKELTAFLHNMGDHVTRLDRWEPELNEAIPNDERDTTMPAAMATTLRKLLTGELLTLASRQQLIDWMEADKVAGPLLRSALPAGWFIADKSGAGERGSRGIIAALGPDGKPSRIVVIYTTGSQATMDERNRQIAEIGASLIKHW
Assay [7] has as its system HEK293. The assay can be described thus: SAR Analysis of small molecule inhibitors of T-cell specific antigen receptor-induced NF-kB activation in a HEK-293T cell line using a luminescence assay - Set 2. [Related pubchem assays (depositor defined):AID435003, AID435012, AID489026]. The format is functional, cell-based. The following applies: Homo sapiens.
Assay [8] has as its system BJ. Kind of assay: BJ-TERT-LT-ST fibroblast viability loss – cell-based, RAS-independent, luminescence, dose response (AID 1935).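 Also: BJ fibroblasts immortalized with TERT plus LT and ST oncogenes.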 The following applies: Homo sapiens. In kind it is functional.
The nature of assay [9]: cells. In kind it is functional, cell-based.
Assay [10] in a line: cells. The format is functional, cell-based. The source holds these as a separate data set.
The nature of assay [11]: blockers of HIV-1 ZM109 envelope-driven cell-cell fusion – HeLa effector, CEM target cells, luciferase, cherry-pick, dose response (AID 652058).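 Also: luciferase signal from HIV-1 Env mediated cell-cell fusion of effector and target cells.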 In kind it is functional, cell-based.
The target of assay [12] is Nonstructural protein 1 (Influenza A virus, UniProt Q194T2). In kind it is functional, Influenza A virus (A/California/07/2009(H1N1)).
Nonstructural protein 1, sequence (Q194T2 whole entry, the tested form may be a part): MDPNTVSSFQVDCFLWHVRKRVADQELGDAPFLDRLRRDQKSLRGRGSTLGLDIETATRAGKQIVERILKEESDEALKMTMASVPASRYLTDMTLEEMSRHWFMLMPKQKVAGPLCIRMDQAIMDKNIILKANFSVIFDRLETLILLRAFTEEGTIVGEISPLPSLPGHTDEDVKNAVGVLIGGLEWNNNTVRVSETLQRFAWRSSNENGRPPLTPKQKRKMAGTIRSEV
The nature of assay [13]: HIV-1 AD8 envelope cell-cell fusion blockers – cherry-pick, dose response (AID 652062).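 Also: luciferase signal from cell-cell fusion driven by HIV-1 clade B AD8 Env; potency is for inhibitors of fusion seen as a drop in luminescence.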 In kind it is functional, cell-based.
The nature of assay [14]: luciferase reporter signal suppression in cells – H4 neuroglioma cells, luminescence, dose response (AID 1990). In kind it is functional, cell-based.
Assay [15] concerns the target T5, Heat shock factor protein 1 (Mus musculus, UniProt P38532).
T5 sequence (P38532 whole entry): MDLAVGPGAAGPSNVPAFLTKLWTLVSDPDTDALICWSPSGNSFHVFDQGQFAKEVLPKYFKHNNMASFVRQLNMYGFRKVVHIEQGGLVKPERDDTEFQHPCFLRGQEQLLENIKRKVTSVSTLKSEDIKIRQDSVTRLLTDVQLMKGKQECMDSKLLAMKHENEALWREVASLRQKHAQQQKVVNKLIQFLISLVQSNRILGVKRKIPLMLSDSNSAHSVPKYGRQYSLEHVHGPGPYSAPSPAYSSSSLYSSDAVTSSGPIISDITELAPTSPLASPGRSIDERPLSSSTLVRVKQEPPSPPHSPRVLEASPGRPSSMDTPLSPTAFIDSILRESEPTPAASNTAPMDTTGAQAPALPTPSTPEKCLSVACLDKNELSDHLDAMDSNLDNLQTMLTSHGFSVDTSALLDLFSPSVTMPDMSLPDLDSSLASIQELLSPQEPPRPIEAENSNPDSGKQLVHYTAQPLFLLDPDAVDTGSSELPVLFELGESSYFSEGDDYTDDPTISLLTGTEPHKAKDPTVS
The assay can be described thus: enhancement of HSF1-driven luciferase signal – cell-based, NIH3T3, luminescence, dose retest, confirmation (AID 435004).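 Also: stress induced by proteasome inhibitor MG132 added 30 min after compound; luciferase reporter driven by HSF1 response element in NIH3T3 cells; actives raise luminescence as potentiators of the MG132 stress response.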 The format is functional.

SMILES strings stand for the structures. The source made the active and inactive calls.

Turning to `O=C(c1ccccc1)c1coc2c1C(=O)c1ccccc1C2=O`, the IC50 is 25.7 µM (active) in [1] and 17.4 µM (active) in [3]. In [2], the EC50 is 37.7 µM (inactive).
As to `CCOC(=O)c1c(C)oc2c1c(/C=N/CCC(=O)O)c(O)c1ccccc12`, the IC50 in assay [4] is > 100 µM (inactive).
For the molecule `O=[N+]([O-])c1c(NCCO)cc(Sc2nc3ccccc3s2)c2nonc12`, the IC50 in [5] was 75.8 µM (active); in [6], 9.17 µM (active).
For `CC(=O)NC(c1ccc2ccccc2c1)c1ccc2cccnc2c1O` (centres undefined), in assay [7], the IC50 was 1.88 µM (active). Further, the EC50 in [8] was 6.07 µM (inconclusive); in assay [9], > 350 µM (not active); in [10], 7.14 µM (active).
For the molecule `COc1ccc2c(c1)CCC(/C=N/c1ccc3c(c1)OCO3)=C2O`, the values for the IC50 in assay [1] and in assay [3] were 65.5 µM (active) and 15.1 µM (active), respectively.
Take `CCc1ccc(Nc2n[n+](-c3ccccc3)c(-c3c(Cl)cccc3Cl)s2)cc1`: the IC50 in [6] was 3.12 µM (active); in [12] it was 24.4 µM (active). Also, the values for the AC50 in assay [11] and in assay [13] were 23.3 µM (active) and 5.91 µM (active), respectively.
Take `CCOC(=O)c1c(C)[nH]c2c1-c1ccccc1C(=O)C2=O`: the 50% effective concentration (EC50) in [14] is 3.02 µM (active).
Consider `CCOC(=O)C1=C(c2ccccc2)N=C(N)NC1c1ccc(OCc2ccc(Cl)cc2)c(OC)c1` (centres undefined), for which the EC50 in assay [15] is 25 µM (active). The IC50 in assay [12] is 79.2 µM (active).
